For one compound, solubility in acetone and solubility in acetonitrile results are on record in patent US20080234323A1, “Amorphous and Three Crystalline Forms of Rimonabant Hydrochloride” (priority 2005, published 2008).

A short description of this data set: Solubility of different forms of Rimonabant hydrochloride in solvents. It counts as physicochemical. The conditions noted are these: at R.T. An excerpt: • All the forms were soluble in alcohols such as methanol, ethanol etc.

For `Cc1c(C(=O)NN2CCCCC2)nn(-c2ccc(Cl)cc2Cl)c1-c1ccc(Cl)cc1` [Form II, 5-(4-chlorophenyl)-1-(2,4-dichlorophenyl)-4-methyl-N-(piperidin-1-yl)pyrazole-3-carboxamide], the solubility in acetone result is on record as “partly soluble” and the solubility in acetonitrile entry was “partly soluble”.
